Laboratory results taken from patent US9497970B2, “Pesticide compounds” (priority 2013, dated 2016).

Experiments:
Format in all cases: in vivo
[1] = test system: Boll Weevil (Anthonomus grandis); assay: B.3 Boll Weevil (Anthonomus grandis), microtiter plate insect diet; details: 120 h, 800 ppm, sprayed onto insect diet, 5 days, in comparison with untreated controls, read-out: mortality (egg and larval)
Procedure, shortened: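 Compounds in 25% DMSO/water sprayed at several concentrations onto insect diet in microtiter wells holding 5–10 A. grandis eggs, two replicates. Plates kept 5 days at about 25±1 °C and 75±5% RH. Egg and larval mortality scored visually.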

[2] = test system: Tobacco Budworm (Heliothis virescens); assay: B.7 Tobacco Budworm (Heliothis virescens) I, microtiter plate insect diet; details: 120 h, 800 ppm, sprayed onto insect diet, 5 days, in comparison with untreated controls, read-out: mortality (egg and larval)
Procedure, shortened: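 96-well plates with insect diet and 15-25 H. virescens eggs; compounds in 75% water/25% DMSO sprayed onto diet at several concentrations, two replicates. Plates held at about 28±1° C. and 80±5% relative humidity for 5 days, then egg and larval mortality scored visually.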

[3] = test system: Green Peach Aphid (Myzus persicae); assay: B.9 Green Peach Aphid (Myzus persicae), sprayed bell pepper plants; details: 120 h, infested bell pepper plants sprayed, after 5 days, in comparison with untreated controls
Method: B.9 Green Peach Aphid (Myzus persicae)
(§1) The active compounds were formulated by a Tecan liquid handler in 100% cyclohexa none as a 10,000 ppm solution supplied in tubes. The 10,000 ppm solution was serially diluted in 100% cyclohexanone to make interim solutions. These served as stock solutions for which final dilutions were made by the Tecan in 50% acetone:50% water (v/v) into 5 or 10 ml glass vials. A nonionic surfactant (Kinetic®) was included in the solution at a volume of 0.01% (v/v). The vials were then inserted into an automated electrostatic sprayer equipped with an atomizing nozzle for application to plants/insects.
Bell pepper plants at the first true-leaf stage were infested prior to treatment by placing heavily infested leaves from the main colony on top of the treatment plants. Aphids were allowed to transfer overnight to accomplish an infestation of 30-50 aphids per plant and the host leaves were removed. The infested plants were then sprayed by an automated electrostatic plant sprayer equipped with an atomizing spray nozzle. The plants were dried in the sprayer fume hood, removed, and then maintained in a growth room under fluorescent lighting in a 24-hr photoperiod at about 25° C. and about 20-40% relative humidity. Aphid mortality on the treated plants, relative to mortality on untreated control plants, was determined after 5 days.

[4] = test system: Diamond Back Moth (Plutella xylostella); assay: B.1 Diamond Back Moth (Plutella xylostella), cabbage leaf dip; details: foliar, 500 ppm, 3rd instar larvae on dipped cabbage leaves, 72 hours after treatment, in comparison with untreated controls, read-out: mortality
Procedure, shortened: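 Cabbage leaves dipped in compound in 1:1 water:acetone with 0.01% Kinetic HV surfactant, air-dried, then infested with ten 3rd-instar larvae on moist filter paper. Mortality scored at 72 h after treatment; feeding damage rated on a 0-100% scale.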

[5] = test system: Mediterranean Fruitfly (Ceratitis capitata); assay: B.6 Mediterranean Fruitfly (Ceratitis capitata), microtiter plate insect diet; details: 120 h, 800 ppm, sprayed onto insect diet, 5 days, in comparison with untreated controls, read-out: mortality (egg and larval)
Procedure, shortened: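 Insect diet with 50-80 C. capitata eggs sprayed with compounds formulated in 75% water/25% DMSO, at different concentrations, two replications. Incubation at about 28±1° C and 80±5% relative humidity for 5 days, then egg and larval mortality assessed visually.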

[6] = test system: Yellow Fever Mosquito (Aedes aegypti); assay: whole plant or invertebrate; details: 48 h, freshly hatched larvae in tap water, 2 days, in comparison with untreated controls, read-out: mortality (larval)
Method: B.11 Yellow Fever Mosquito (Aedes aegypti)
For evaluating control of yellow fever mosquito (Aedes aegypti) the test unit consisted of 96-well-microtiter plates containing 200 μl of tap water per well and 5-15 freshly hatched A. aegypti larvae.
The active compounds were formulated using a solution containing 75% (v/v) water and 25% (v/v) DMSO. Different concentrations of formulated compounds or mixtures were sprayed onto the insect diet at 2.5 μl, using a custom built micro atomizer, at two replications.

[7] = test system: Orchid thrips (dichromothrips corbetti); assay: B.12 Orchid thrips (dichromothrips corbetti), floral-immersion technique; details: adult thrips on dipped orchid petals, 72 hours after treatment, in comparison with untreated controls
Method: B.12 Orchid thrips (dichromothrips corbetti)
Dichromothrips corbetti adults used for bioassay were obtained from a colony maintained continuously under laboratory conditions. For testing purposes, the test compound is diluted in a 1:1 mixture of acetone:water (vol:vol), plus Kinetic HV at a rate of 0.01% v/v.
Thrips potency of each compound was evaluated by using a floral-immersion technique. All petals of individual, intact orchid flowers were dipped into treatment solution and allowed to dry in Petri dishes. Treated petals were placed into individual resealable plastic along with about 20 adult thrips. All test arenas were held under continuous light and a temperature of about 28° C. for duration of the assay. After 3 days, the numbers of live thrips were counted on each petal. The percent mortality was recorded 72 hours after treatment.

[8] = test system: Southern Armyworm (Spodoptera eridania), 2nd Instar Larvae; assay: B.10 Southern Armyworm (Spodoptera eridania), 2nd Instar Larvae, sprayed lima bean plants; details: 96 h, 300 ppm, larvae on sprayed lima bean plants, 4 days after treatment, in comparison with untreated controls, read-out: mortality
Method: B.10 Southern Armyworm (Spodoptera eridania), 2nd Instar Larvae
as §1, with “cyclohexanone” for “cyclohexa none”
Lima bean plants (variety Sieva) were grown 2 plants to a pot and selected for treatment at the 1st true leaf stage. Test solutions were sprayed onto the foliage by an automated electrostatic plant sprayer equipped with an atomizing spray nozzle. The plants were dried in the sprayer fume hood and then removed from the sprayer. Each pot was placed into perforated plastic bags with a zip closure. About 10 to 11 armyworm larvae were placed into the bag and the bags zipped closed. Test plants were maintained in a growth room at about 25° C. and about 20-40% relative humidity for 4 days, avoiding direct exposure to fluorescent light (24 hour photoperiod) to prevent trapping of heat inside the bags. Mortality and reduced feeding were assessed 4 days after treatment, compared to untreated control plants.

O=[N+]([O-])c1ccccc1NC(=S)N/N=C/c1ccc2c(ccc3c2ncn3-c2ccc(OC(F)(F)F)cc2)c1 [C-31, 3-(2-nitrophenyl)-1-[[3-[4-(trifluoromethoxy)phenyl]-9aH-benzo[e]benzimidazol-7-ylidene]methylimino] isothiourea]
≥ 75%: mortality at 800 ppm [1] | mortality at 800 ppm [2] | mortality at 800 ppm [3]

Cc1ccc(NC(=S)N/N=C/c2ccc3c(ccc4c3ncn4-c3ccc(OC(F)(F)F)cc3)c2)c(C)c1 [C-2, 1-(2,4-dimethylphenyl)-3-[(E)-[3-[4-(trifluoromethoxy)phenyl]benzo[e]benzimidazol-7-yl]methyleneamino] thiourea]
≥ 75%: mortality at 500 ppm [4] | mortality at 800 ppm [1] | mortality at 800 ppm [5] | mortality at 800 ppm [2] | mortality at 800 ppm [3]

FC(F)(F)Oc1ccc(-n2nnc3c4ccc(/C=N/NC(=S)Nc5c(Cl)cccc5Cl)cc4ccc32)cc1 [C-57, 1-(2,6-dichlorophenyl)-3-[(E)-[3-[4-(trifluoromethoxy)phenyl]benzo[e]benzotriazol-7-yl]methyleneamino] thiourea]
≥ 75%: mortality at 800 ppm [3]

Cc1cc(Br)cc(C)c1NC(=S)N/N=C/c1ccc2c(ccc3c2ncn3-c2ccc(OC(F)(F)F)cc2)c1 [C-4, 1-(4-bromo-2,6-dimethyl-phenyl)-3-[(E)-[3-[4-(trifluoromethoxy)phenyl]benzo[e]benzimidazol-7-yl]methyleneamino]thiourea]
≥ 75%: mortality at 500 ppm [4] | mortality at 800 ppm [1] | mortality at 800 ppm [5] | mortality at 800 ppm [2] | mortality at 800 ppm [3] | mortality at 800 ppm [6] | mortality at 500 ppm [7]

C/C(=N\NC(=S)Nc1c(C)cccc1C)c1ccc2c(ccc3c2ncn3-c2ccc(OC(F)(F)F)cc2)c1 [C-58, 1-(2,6-dimethylphenyl)-3-[(E)-1-[3-[4-(trifluoromethoxy)phenyl]benzo[e]benzimidazol-7-yl]ethylideneamino]thiourea]
≥ 75%: mortality at 500 ppm [4] | mortality at 800 ppm [1] | mortality at 800 ppm [5] | mortality at 800 ppm [2] | mortality at 800 ppm [3] | mortality at 300 ppm [8] | mortality at 800 ppm [6] | mortality at 500 ppm [7]

Cc1cccc(C)c1NC(=S)N(C)/N=C/c1ccc2c(ccc3c2ncn3-c2ccc(OC(F)(F)F)cc2)c1 [C-85, 3-(2,6-dimethylphenyl)-1-methyl-1-[(E)-[3-[4-(trifluoromethoxy)phenyl]benzo [e]benzimidazol-7-yl]methyleneamino] thiourea]
≥ 75%: mortality at 500 ppm [4] | mortality at 800 ppm [1] | mortality at 800 ppm [5] | mortality at 800 ppm [2] | mortality at 300 ppm [8] | mortality at 800 ppm [6] | mortality at 500 ppm [7]

Cc1cccc(Cl)c1NC(=S)N/N=C/c1ccc2c(ccc3c2ncn3-c2ccc(OC(F)(F)F)cc2)c1 [C-79, 1-(2-chloro-6-methyl-phenyl)-3-[(E)-[3-[4-(trifluoromethoxy)phenyl]benzo[e]benzimidazol-7-yl]methyleneamino] thiourea]
≥ 75%: mortality at 500 ppm [4] | mortality at 800 ppm [1] | mortality at 800 ppm [5] | mortality at 800 ppm [2] | mortality at 800 ppm [3] | mortality at 300 ppm [8] | mortality at 800 ppm [6] | mortality at 500 ppm [7]

Cc1cccc(C)c1NC(=S)N/N=C/c1ccc2c(ccc3c2ncn3-c2ccc(C(F)(F)F)cc2F)c1 [C-113, 1-(2,6-dimethylphenyl)-3-[[3-[2-fluoro-4-(trifluoromethyl)phenyl]-3aH-benzo[e]benzimidazol-7-ylidene]methylimino]thiourea]
≥ 75%: mortality at 800 ppm [1] | mortality at 800 ppm [5] | mortality at 800 ppm [2] | mortality at 800 ppm [3] | mortality at 800 ppm [6]

Cc1cccc(C)c1NC(=S)N/N=C/c1ccc2c(c1)CCc1c-2noc1-c1ccc(OC(F)(F)F)cc1 [C-7, 1-(2,6-dimethylphenyl)-3-[(E)-[3-[4-(trifluoromethoxy)phenyl]-4,5-dihydrobenzo[g][2,1]benzoxazol-7-yl]methyleneamino]thiourea]
≥ 75%: mortality at 800 ppm [2] | mortality at 800 ppm [3] | mortality at 500 ppm [7]

Cc1cccc(C)c1NC(=S)N/N=C/c1ccc2c(ccc3c2ncn3-c2ccc(C(F)(F)C(F)(F)F)cc2)c1 [C-110, 1-(2,6-dimethylphenyl)-3-[(E)-[3-[4-(1,1,2,2,2-pentafluoroethyl)phenyl]benzo[e]benzimidazol-7-yl]methyleneamino]thiourea]
≥ 75%: mortality at 800 ppm [1] | mortality at 800 ppm [5] | mortality at 800 ppm [2] | mortality at 800 ppm [3] | mortality at 800 ppm [6]

Cc1cccc(C)c1NC(=S)N/N=C/c1ccc2c(ccc3c(-c4ccc(OC(F)(F)F)cc4)onc32)c1 [C-84, 1-(2,6-dimethylphenyl)-3-[(E)-[3-[4-(trifluoromethoxy)phenyl]benzo[g][2,1]benzoxazol-7-yl]methyleneamino] thiourea]
≥ 75%: mortality at 800 ppm [5] | mortality at 800 ppm [2] | mortality at 800 ppm [3]

CCc1cccc(C)c1NC(=S)N/N=C/c1ccc2c(ccc3c(-c4ccc(OC(F)(F)F)cc4)n(C)nc32)c1 [C-92, 1-(2-ethyl-6-methyl-phenyl)-3-[(E)-[2-methyl-3-[4-(trifluoromethoxy)phenyl]benzo[g]indazol-7-yl]methyleneamino] thiourea]
≥ 75%: mortality at 500 ppm [4] | mortality at 800 ppm [1] | mortality at 800 ppm [5] | mortality at 800 ppm [2] | mortality at 800 ppm [3] | mortality at 800 ppm [6] | mortality at 500 ppm [7]

COc1ccc(C)cc1NC(=S)N/N=C/c1ccc2c(ccc3c2ncn3-c2ccc(OC(F)(F)F)cc2)c1 [C-25, 1-(2-methoxy-5-methyl-phenyl)-3-[(E)-[3-[4-(trifluoromethoxy)phenyl]benzo [e]benzimidazol-7-yl]methyleneamino] thiourea]
≥ 75%: mortality at 800 ppm [1] | mortality at 800 ppm [5] | mortality at 800 ppm [3] | mortality at 300 ppm [8]
